The results in this text go back to patent US20260364088A1, “TASL MIMICKING MOLECULES AND APPLICATIONS THEREOF” (CEMM - FORSCHUNGSZENTRUM FÜR MOLEKULARE MEDIZIN GMBH, priority 2022, published 2026).

Structures are written as SMILES. Like-named read-outs stand apart in the source and are kept apart here.

Experiment [1] concerns TNF production in CD14^+ monocytes. Nature of the experiment: TNF ELISA, R848-stimulated purified CD14^+ monocytes. It is filed as cell-based, human. To be noted: purified CD14^+ cells, dTASL1 10 µM 24 h, R848 (5 μg/ml) 16 h, n=8. From the text:
HEK293T cells and THP1 cells were purchased from ATCC, THP1 DUAL/ISRE reporter cell lines from Invivogen. CAL-1 cells were provided by T. Maeda (Nagasaki University). Cell lines—except for CAL-1—were authenticated by short tandem repeat profiling and regularly tested for mycoplasma contamination. Human primary PBMCs were isolated from the blood of anonymous healthy donors as well as SLE patients included in our biobank approved by the ethics committee of the Medical University of Vienna (EK2071/2020 and EK1075/2021). CD14^+ monocytes were purified by magnetic-activated cell sorting (Miltenyi Biotec, #130-050-201) according to the manufacturers protocol. Purity of CD14^+ cells ranged between 80.8% and 94.2% as determined by flow cytometry analysis. […]
Given that all evidence obtained seems to confirm the mechanistic precision of this chemical agent, any further consideration of assessing the therapeutic potential required evidence for activity in human primary cells relevant for SLE pathophysiology. The effect of dTASL1 in human peripheral blood mononuclear cells (PBMCs) was assessed. […] The impact of dTASL1 on TLR7/8 responses by directly monitoring IRF5 by confocal microscopy in B cells was assessed.
(An ELISA detects its analyte on a solid surface through an enzyme-linked reagent.)

In the next experiment the target is T1, THP1 dual cell (Homo sapiens, UniProt Q8N697).
T1 construct: R848 (TLR7/8)-stimulated ISRE reporter
T1 sequence (Q8N697 whole entry): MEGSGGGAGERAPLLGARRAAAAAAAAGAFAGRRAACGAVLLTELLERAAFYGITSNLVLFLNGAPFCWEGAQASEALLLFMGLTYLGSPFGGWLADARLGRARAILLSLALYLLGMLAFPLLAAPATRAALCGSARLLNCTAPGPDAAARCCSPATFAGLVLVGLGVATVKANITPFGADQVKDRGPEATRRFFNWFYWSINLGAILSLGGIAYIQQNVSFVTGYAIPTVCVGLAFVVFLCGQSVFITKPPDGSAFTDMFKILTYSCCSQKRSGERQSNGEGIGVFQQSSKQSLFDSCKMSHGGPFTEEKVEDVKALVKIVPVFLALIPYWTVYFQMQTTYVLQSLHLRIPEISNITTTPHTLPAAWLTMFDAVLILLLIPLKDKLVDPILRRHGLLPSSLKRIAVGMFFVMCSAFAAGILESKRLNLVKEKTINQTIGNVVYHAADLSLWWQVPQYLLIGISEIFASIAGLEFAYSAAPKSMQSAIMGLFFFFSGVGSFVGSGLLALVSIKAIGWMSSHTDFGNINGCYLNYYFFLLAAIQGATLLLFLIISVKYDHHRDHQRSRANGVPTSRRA
Nature of the experiment: THP1 DUAL/ISRE cell reporter assay (R848 stimulated). It is filed as cell-based. On the procedure:
CAL-1, THP1 or human primary cells were incubated with dTASL1 and other identified compounds (or the corresponding volume of DMSO vehicle) for 24 h or 48 h at the indicated concentration and subsequently stimulated with R848 (5 μg/ml) for the indicated time. Supernatant or cells were recovered for ELISA, SDS-PAGE or microscopy-based analysis.
THP1 DUAL cells (1×10^5 cells per 96 well) were incubated with compounds for 24 h or 48 h, and subsequently stimulated for 20 h as indicated. Cell culture supernatant were collected, cleared of residual cells by centrifugation and analyzed for NF-κB and ISRE reporter activity according to the manufacturer's instructions. For experiments in 384-well format, compounds were pre-plated at defined concentrations and THP1 dual cells were added at 800 k/well concentration in […]. After incubation for 24 h or 48 h cells were stimulated with […] of a 25 μg/ml stock of R848 or 0.5 μg/ml Pam3CKS4 5× stocks as indicated for 20 h and detected by directly adding Quanti-Luc Plus (Invivogen) solution to the plates, according to the manufacturer's instructions and without adding stabilizer solution. Quanti-Blue detection was carried out according to the manifacturers instructions, with QB reagent and buffer (Invivogen) dissolved in 30 ml water, instead of the 100 ml used for standard detection.
Based on potency and kinetics, the compound C5 was selected for further characterization (FIG. 2E). C5 is an elongated molecule comprised of an aromatic 2-(4-ethoxyphenyl)-quinoline moiety followed by an amide bond and an aliphatic 2-methyl-1-propylpiperidine (FIG. 2F). To validate the scaffold and explore the chemical space at the aliphatic end of the compound, five analogues and an independently synthesized batch of C5 were obtained. […] Therefore the C5 compound was selected, which was named dTASL1 as its activity leads to TASL degradation, to assess effects on TLR7/8-induced signaling and responses.
The following compounds were assayed for their activity in the degradation assay (THP1 DUAL/ISRE cell reporter assay), as described herein: […]
(In general: In a reporter assay the amount or activity of a reporter protein is the signal.)

The target of the next experiment is ΔN-SLC15A4-GFP (Homo sapiens, UniProt Q8N697). The experiment can be described thus: ΔN-SLC15A4-GFP levels and localization in HEK293T cells. It is filed as cell-based. The settings on record: 10 µM, 24 h. The procedure:
(§1) Cells transfected with TASL-V5 plasmid were stained for V5-tag and detected with deep red Alexa Fluor 647 secondary antibody to allow for selection in the presence of an mCherry reporter. Cells were measured either immediately after staining or in the case of live cells immediately after harvesting and washing with PBS. Data were acquired on a BD FACSCalibur (BD Biosciences) and analyzed with FlowJo software (version 10).
(§2) For live cell imaging cells were plated in PhenoPlate 96-well plates or Ibidi m-Slide 8 (Ibidi) wells at 16 k/well and incubated over-night. Then compounds were added, if indicated, and cells were imaged after 24 h of incubation. Cells were stained with LysoTracker Deep Red L12492 (ThermoFisher) and Hoechst 34580 (ThermoFisher). […] Images were analyzed with Fiji-ImageJ.
(§3) Encouraged by the fact that the chemical entity of the present invention was showing the desired behavior and specificity profile, it became important to better clarify the molecular basis of this uncommon mechanism of action, i.e interference with a highly specific protein interaction leading to degradation of a single complex component. The effect of dTASL1 on complex assembly was first monitored. […]

The target of a further experiment is TASL-SLC15A4 complex (Homo sapiens, UniProt Q8N697). Nature of the experiment: PM-associated TASL levels in cells coexpressing ΔN-SLC15A4 and TASL-GFP. In kind it is cell-based. To be noted: 10 µM, 24 h. The procedure:
For live cell imaging cells were plated in PhenoPlate 96-well plates or Ibidi m-Slide 8 (Ibidi) wells at 16 k/well and incubated over-night. Then compounds were added, if indicated, and cells were imaged after 24 h of incubation. Cells were stained with LysoTracker Deep Red L12492 (ThermoFisher) and Hoechst 34580 (ThermoFisher). PhenoPlate images were acquired on an Opera Phenix Plus High-Content Screening System (PerkinElmer) and m-Slide images were acquired on a confocal laser scanning microscope (Zeiss LSM980, Carl Zeiss) equipped with an incubation chamber. Images were analyzed with Fiji-ImageJ.
Encouraged by the fact that the chemical entity of the present invention was showing the desired behavior and specificity profile, it became important to better clarify the molecular basis of this uncommon mechanism of action, i.e interference with a highly specific protein interaction leading to degradation of a single complex component. The effect of dTASL1 on complex assembly was first monitored. […] While total levels of SLC15A4-GFP were unaltered, localization appears to reflect some lysosomal rearrangement. […] To further rule out the residual possibility of an indirect effect, possibly related to TASL maturation or transport, dTASL1 competition assays with GFP-SLC15A4 associated with short N-terminal portions of TASL protein were performed. […]

Another experiment concerns the target SLC15A4-GFP (Homo sapiens, UniProt Q8N697). The experiment can be described thus: SLC15A4-GFP levels when expressed alone in HEK293T cells. The settings on record: 10 µM, 24 h. In kind it is cell-based. The procedure: as §1, §2, §3

Sequence of TASL-SLC15A4 complex (Q8N697 whole entry, one chain of several): as the sequence (Q8N697 whole entry) above
Sequence of SLC15A4-GFP (Q8N697 whole entry): as above
Sequence of ΔN-SLC15A4-GFP (Q8N697 whole entry, stated change not applied): as the sequence (Q8N697 whole entry) above

The term IC50 denotes the concentration that gives 50% inhibition. On to `CCOc1ccc(-c2cc(C(=O)NCCCN3CCCCC3C)c3ccccc3n2)cc1` (stereo not drawn) [dTASL1, 2-(4-ethoxyphenyl)-N-(3-(2-methylpiperidin-1-yl)propyl) quinoline-4-carboxamide], for which, in experiment [1], the TNF production entry is “a significant reduction in this proinflammatory cytokine”. Besides, the IC50 was 2230 nM on THP1 dual cell (24 h treatment before R848 stimulation, read-out: IC50 24 h) and 933 nM on THP1 dual cell (48 h treatment before R848 stimulation, read-out: IC50 48 h). Moreover, the “levels or localization of ΔN-SLC15A4-GFP” value at ΔN-SLC15A4-GFP is “did not affect levels or localization of ΔN-SLC15A4-GFP”. Moreover, the “PM-associated TASL levels” value on TASL-SLC15A4 complex is “severely reduced PM-associated TASL levels”. In addition, the “total levels of SLC15A4-GFP” value on SLC15A4-GFP is recorded as “did not affect total levels of SLC15A4-GFP”.
